# From US9434725B2, “5-azaindazole compounds and methods of use” (priority 2012, dated 2016)
# Structures can show the parent of a compound that is named as a salt.
# How the values were obtained:
# Format in all cases: biochemical
# [1] = molecular target: PIM2 (Homo sapiens (Human), UniProt Q9P1W9); assay: Pim kinase binding activity, Caliper LC3000 microfluidic peptide phosphorylation assay, PIM2; details: 10 μM ATP, 90 min, room temperature; read-out: PIM2 LC3K (KI)
# How it was run: (§1)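 Pim-specific fluorescent peptide phosphorylated in 10 mM HEPES pH 7.2, 10 mM MgCl2, 0.01% Tween 20, 2 mM DTT for 90 min at room temperature, then stopped with EDTA. Product and substrate separated by microfluidic mobility shift; Ki derived from substrate conversion.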
# [2] = molecular target: PIM1 (Homo sapiens (Human), UniProt P11309); assay: biochemical; details: 10 μM ATP, 90 min, room temperature; read-out: PIM1 LC3K (KI)
# PIM1, sequence (P11309 whole entry): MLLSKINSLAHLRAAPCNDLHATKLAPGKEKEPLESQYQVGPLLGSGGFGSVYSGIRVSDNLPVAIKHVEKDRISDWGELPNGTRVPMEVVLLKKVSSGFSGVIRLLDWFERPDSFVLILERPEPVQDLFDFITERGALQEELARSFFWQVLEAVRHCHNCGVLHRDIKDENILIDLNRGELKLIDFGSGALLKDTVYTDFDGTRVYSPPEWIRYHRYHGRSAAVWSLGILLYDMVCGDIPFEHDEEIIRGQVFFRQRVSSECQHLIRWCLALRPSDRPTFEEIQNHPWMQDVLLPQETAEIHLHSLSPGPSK
# Protocol: A fluorescent-labeled Pim-specific peptide substrate, was custom synthesized by American Peptide Company (Sunnyvale, Calif.). Reaction Buffer contained 10 mM HEPES, pH 7.2, 10 mM MgCl2, 0.01% Tween 20, 2 mM DTT. Termination Buffer contained 190 mM HEPES, pH 7.2, 0.015% Brij-35, 0.2% Coating Reagent 3 (Caliper Life Sciences, Hopkinton, Mass.), 20 mM EDTA. Separation Buffer contained 100 mM HEPES, pH 7.2, 0.015% Brij-35, 0.1% Coating Reagent 3, 1:200 Coating Reagent 8 (Caliper Life Sciences, Hopkinton, Mass.), 10 mM EDTA and 5% DMSO.
# PIM reactions were carried out in a final volume of 10 μL per well in a 384-well plate. […] After 90 minutes of incubation at room temperature, the phosphorylation reaction was stopped by the addition of 10 μL Termination Buffer. The product and substrate in each independent reaction were separated on a 12-sipper microfluidic chip (Caliper Life Sciences, Hopkinton, Mass.) run on a Caliper LC3000® (Caliper Life Sciences, Hopkinton, Mass.). The separation of product and substrate was optimized by choosing voltages and pressure using Caliper's Optimizer software (Hopkinton, Mass.). […] Substrate conversion was calculated from the electropherogram using HTS Well Analyzer software (Caliper Life Sciences, Hopkinton, Mass.). Ki values for the test compound were calculated.
# [3] = molecular target: PIM3 (Homo sapiens (Human), UniProt Q86V86); assay: Pim kinase binding activity, Caliper LC3000 microfluidic peptide phosphorylation assay, PIM3; details: 10 μM ATP, 90 min, room temperature; read-out: PIM3 LC3K (KI)
# How it was run: as §1
# PIM2, sequence (Q9P1W9 whole entry): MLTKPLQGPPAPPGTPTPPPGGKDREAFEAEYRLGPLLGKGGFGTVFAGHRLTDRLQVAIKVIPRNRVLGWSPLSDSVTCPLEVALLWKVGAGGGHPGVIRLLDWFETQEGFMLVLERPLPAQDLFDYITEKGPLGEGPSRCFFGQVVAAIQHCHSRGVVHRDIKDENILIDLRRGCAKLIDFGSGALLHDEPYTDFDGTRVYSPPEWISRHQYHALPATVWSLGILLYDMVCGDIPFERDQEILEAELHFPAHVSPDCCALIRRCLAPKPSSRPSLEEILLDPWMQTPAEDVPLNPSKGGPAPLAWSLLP
Structure (SMILES),Ki [1],Ki [2],Ki [3]
"CCn1cc(-c2cc3c(cn2)cnn3-c2cccc(N3CCC(O)CC3)n2)cn1 [Compound 129, 1-(6-(6-(1-ethyl-1H-pyrazol-4-yl)-1H-pyrazolo[4,3-c]pyridin-1-yl)pyridin-2-yl)piperidin-4-ol]",28.3 nM,3.47 nM,2.46 nM
"CCn1cc(-c2cc3c(cn2)cnn3-c2cccc(N3CCC(N)CC3)n2)cn1 [Compound 132, 1-(6-(6-(1-ethyl-1H-pyrazol-4-yl)-1H-pyrazolo[4,3-c]pyridin-1-yl)pyridin-2-yl)piperidin-4-amine]",19.3 nM,1.56 nM,0.87 nM
"CCn1cc(-c2cc3c(cn2)cnn3-c2cccc(N3CCCC(N)CC3)n2)cn1 (stereo not drawn) [Compound 140, 1-(6-(6-(1-ethyl-1H-pyrazol-4-yl)-1H-pyrazolo[4,3-c]pyridin-1-yl)pyridin-2-yl)azepan-4-amine]",13.4 nM,1.04 nM,0.454 nM
"OC[C@@H]1CCCN1c1cncc(-c2cc3c(cn2)cnn3-c2cccc(N3CCNCC3)n2)n1 [Compound 280, (S)-(1-(6-(1-(6-(piperazin-1-yl)pyridin-2-yl)-1H-pyrazolo[4,3-c]pyridin-6-yl)pyrazin-2-yl)pyrrolidin-2-yl)methanol dihydrochloride]",18 nM,0.051 nM,0.101 nM
"Cc1cncc(-c2cc3c(cn2)cnn3-c2cccc(N3C[C@@H](N)CCC3=O)n2)n1 [Compound 202, (5S)-5-amino-1-[6-[6-(6-methylpyrazin-2-yl)pyrazolo[4,3-c]pyridin-1-yl]-2-pyridyl]piperidin-2-one]",421 nM,56.4 nM,36.4 nM
"Cn1ncc(-c2cc3c(cn2)cnn3-c2ccccc2F)c1Cl [Compound 309, 6-(5-chloro-1-methyl-1H-pyrazol-4-yl)-1-(2-fluorophenyl)-1H-pyrazolo[4,3-c]pyridine]",2200 nM,487 nM,944 nM
"Cc1cc(-c2cc3c(cn2)cnn3-c2cccc(N3CCNCC3)n2)sn1 [Compound 119, 3-methyl-5-[1-(6-piperazin-1-yl-2-pyridyl)pyrazolo[4,3-c]pyridin-6-yl]isothiazole]",8.49 nM,0.426 nM,0.307 nM
"C[C@H]1CN(c2cccc(-n3ncc4cnc(-c5cncc(C6COC6)c5)cc43)n2)CCN1 [Compound 113, (S)-1-(6-(3-methylpiperazin-1-yl)pyridin-2-yl)-6-(5-(oxetan-3-yl)pyridin-3-yl)-1H-pyrazolo[4,3-c]pyridine]",10.1 nM,0.107 nM,0.186 nM
"CCn1cc(-c2cc3c(cn2)cnn3-c2cccc(N3CCN[C@@H](C)C3)n2)cn1 [Compound 126, (S)-6-(1-ethyl-1H-pyrazol-4-yl)-1-(6-(3-methylpiperazin-1-yl)pyridin-2-yl)-1H-pyrazolo[4,3-c]pyridine]",7.36 nM,0.349 nM,0.349 nM
"c1cc(N2CCCNCC2)nc(-n2ncc3cnc(-c4cncc(C5COC5)c4)cc32)c1 [Compound 118, 1-(6-(1,4-diazepan-1-yl)pyridin-2-yl)-6-(5-(oxetan-3-yl)pyridin-3-yl)-1H-pyrazolo[4,3-c]pyridine]",9.04 nM,0.08 nM,0.117 nM
"c1cc(N2CCCNCC2)nc(-n2ncc3cnc(-c4cnn(CC5COC5)c4)cc32)c1 [Compound 158, 1-(6-(1,4-Diazepan-1-yl)pyridin-2-yl)-6-(1-(oxetan-3-ylmethyl)-1H-pyrazol-4-yl)-1H-pyrazolo[4,3-c]pyridine]",2900 nM,287 nM,284 nM
"OC1CNCCN(c2cccc(-n3ncc4cnc(-c5cncc(C6COC6)c5)cc43)n2)C1 (stereo not drawn) [Compound 116, 1-(6-(6-(5-(oxetan-3-yl)pyridin-3-yl)-1H-pyrazolo[4,3-c]pyridin-1-yl)pyridin-2-yl)-1,4-diazepan-6-ol]",27.6 nM,0.294 nM,0.405 nM

# Second part, the compound after the results:
Ki [1],Ki [2],Ki [3],Structure (SMILES)
21.1 nM,1.19 nM,0.83 nM,"Cc1cncc(-c2cc3c(cn2)cnn3-c2cccc(N3CC(O)C(O)C3)n2)n1 (stereo not drawn) [Compound 232, 1-[6-[6-(6-methylpyrazin-2-yl)pyrazolo[4,3-c]pyridin-1-yl]-2-pyridyl]pyrrolidine-3 4-diol]"
528 nM,57.1 nM,8.64 nM,"Cn1cc(-c2cc3c(cn2)cnn3-c2cn(C)c(=O)c(N3CCC[C@@H](N)C3)n2)cn1 [Compound 243, (R)-3-(3-aminopiperidin-1-yl)-1-methyl-5-(6-(1-methyl-1H-pyrazol-4-yl)-1H-pyrazolo[4,3-c]pyridin-1-yl)pyrazin-2(1H)-one]"
5.56 nM,0.918 nM,0.564 nM,"Cc1cncc(-c2cc3c(cn2)cnn3-c2cccc(C3(O)CCCNC3)n2)n1 (stereo not drawn) [Compound 288, 3-(6-(6-(6-methylpyrazin-2-yl)-1H-pyrazolo[4,3-c]pyridin-1-yl)pyridin-2-yl)piperidin-3-ol]"
45.1 nM,2.52 nM,1.78 nM,"Cn1cc(-c2cc3c(cn2)cnn3-c2cccc(N3CC(O)C3)n2)cn1 [Compound 253, 1-(6-(6-(1-Methyl-1H-pyrazol-4-yl)-1H-pyrazolo[4,3-c]pyridin-1-yl)pyridin-2-yl)azetidin-3-ol]"
30.3 nM,3.81 nM,6.01 nM,"FC(F)(F)Cn1cc(-c2cc3c(cn2)cnn3-c2cccc(N3CC4(CNC4)C3)n2)cn1 [Compound 267, 1-(6-(2,6-Diazaspiro[3.3]heptan-2-yl)pyridin-2-yl)-6-(1-(2,2,2-trifluoroethyl)-1H-pyrazol-4-yl)-1H-pyrazolo[4,3-c]pyridine]"
181 nM,48.8 nM,31.6 nM,"COc1ccc(-n2ncc3cnc(-c4cncc(C)n4)cc32)nc1N1CCCNC1=O [Compound 251, 1-[3-methoxy-6-[6-(6-methylpyrazin-2-yl)pyrazolo[4,3-c]pyridin-1-yl]-2-pyridyl]hexahydropyrimidin-2-one]"
63.3 nM,5.05 nM,4.32 nM,"Cn1cc(-c2cc3c(cn2)cnn3-c2cccc(C3(O)CCCNCC3)n2)cn1 (stereo not drawn) [Compound 230, 4-(6-(6-(1-Methyl-1H-pyrazol-4-yl)-1H-pyrazolo[4,3-c]pyridin-1-yl)pyridin-2-yl)azepan-4-ol]"
29.3 nM,1.1 nM,1.21 nM,"Cn1cc(-c2cc3c(cn2)cnn3-c2cccc(N3CC4(CCCCN4)C3)n2)cn1 [Compound 266, 1-(6-(2,5-Diazaspiro[3.5]nonan-2-yl)pyridin-2-yl)-6-(1-methyl-1H-pyrazol-4-yl)-1H-pyrazolo[4,3-c]pyridine]"
9.62 nM,0.876 nM,1.58 nM,"OC1CN(c2cccc(-n3ncc4cnc(-c5cnn(CC(F)(F)F)c5)cc43)n2)C1 [Compound 255, 1-(6-(6-(1-(2,2,2-Trifluoroethyl)-1H-pyrazol-4-yl)-1H-pyrazolo[4,3-c]pyridin-1-yl)pyridin-2-yl)azetidin-3-ol]"
3.58 nM,0.644 nM,0.481 nM,"Cc1cncc(-c2cc3c(cn2)cnn3-c2cccc(N3CCC(O)C(O)C3)n2)n1 (stereo not drawn) [Compound 312, 1-(6-(6-(6-methylpyrazin-2-yl)-1H-pyrazolo[4,3-c]pyridin-1-yl)pyridin-2-yl)piperidine-3,4-diol]"
35 nM,5.67 nM,3.16 nM,"Cc1cncc(-c2cc3c(cn2)cnn3-c2cccc(N3CCCNC3=O)n2)n1 [Compound 252, 1-[6-[6-(6-methylpyrazin-2-yl)pyrazolo[4,3-c]pyridin-1-yl]-2-pyridyl]hexahydropyrimidin-2-one]"
10.1 nM,0.31 nM,0.587 nM,"COc1ccc(-n2ncc3cnc(-c4cnn(CC(F)(F)F)c4)cc32)nc1N1CCNC[C@H](O)C1 [Compound 237, (S)-1-(3-Methoxy-6-(6-(1-(2,2,2-trifluoroethyl)-1H-pyrazol-4-yl)-1H-pyrazolo-[4,3-c]pyridin-1-yl)pyridin-2-yl)-1,4-diazepan-6-ol]"
744 nM,26.2 nM,23.2 nM,"Cc1cncc(-c2cc3c(cn2)cnn3-c2ccc(C)c(N3C[C@@H](N)CCC3=O)n2)n1 [Compound 221, (5S)-5-amino-1-[3-methyl-6-[6-(6-methylpyrazin-2-yl)pyrazolo[4,3-c]pyridin-1-yl]-2-pyridyl]piperidin-2-one]"
718 nM,30.6 nM,6.24 nM,"Cn1cc(-c2cc3c(cn2)cnn3-c2cn(C)c(=O)c(N3CCNCC(O)C3)n2)cn1 (stereo not drawn) [Compound 254, 3-(6-Hydroxy-1,4-diazepan-1-yl)-1-methyl-5-(6-(1-methyl-1H-pyrazol-4-yl)-1H-pyrazolo[4,3-c]pyridin-1-yl)pyrazin-2(1H)-one]"
